For test [1], the target named is CDK1/CyclinB (Homo sapiens, UniProt P06493). Nature of the test: ADP Glo kinase assay, CDK1/CyclinB. Format: biochemical. Conditions: compound at 1 μM, read-out: Residual enzymatic activity (%) at 1 μM, CDK1 B. On the procedure:
(§1) Test compounds are used in 1:3 serial dilutions for 10 concentrations (from 10-0.0005 μM) in 0.5% DMSO. […] The kinase reactions are run for optimised time period at room temperature and then the reaction is stopped by adding 5 μL of ADP Glo reagent.
(In general: ADP-Glo turns the ADP formed in a reaction into a luminescent signal.)

The target in test [2] is CDK2/CyclinA2 (Homo sapiens, UniProt P24941). Nature of the test: ADP Glo kinase assay, CDK2/CyclinA2. It counts as biochemical. The settings on record: for remaining activity at 1 µM: compound at 1 μM, read-out: Residual enzymatic activity (%) at 1 μM, CDK2 A. On the procedure:
as §1

In test [3] the target is CDK7/CyclinH/Mat1 (Homo sapiens, UniProt P50613). Kind of test: ADP Glo kinase assay, CDK7/CyclinH/Mat1. Format: biochemical. Conditions: compound at 1 μM, read-out: Residual enzymatic activity (%) at 1 μM, CDK7 H. On the procedure:
as §1

The target in test [4] is CDK9/CyclinT1 (Homo sapiens, UniProt P50750). Nature of the test: ADP Glo kinase assay, CDK9/CyclinT1. It counts as biochemical. Conditions: CDK9/CyclinT1; Km ATP; read-out: Enzymatic inhibition, Ki, CDK9 T1. On the procedure:
as §1

Test [5] deals with CDK6/CyclinD3 (Homo sapiens, UniProt Q00534). Kind of test: ADP Glo kinase assay, CDK6/CyclinD3. Format: biochemical. Conditions: compound at 1 μM, read-out: Residual enzymatic activity (%) at 1 μM, CDK6 D3. On the procedure:
as §1

Test [6] deals with T1, FLT3-ITD (Homo sapiens, UniProt P36888).
T1 sequence (P36888 1-993): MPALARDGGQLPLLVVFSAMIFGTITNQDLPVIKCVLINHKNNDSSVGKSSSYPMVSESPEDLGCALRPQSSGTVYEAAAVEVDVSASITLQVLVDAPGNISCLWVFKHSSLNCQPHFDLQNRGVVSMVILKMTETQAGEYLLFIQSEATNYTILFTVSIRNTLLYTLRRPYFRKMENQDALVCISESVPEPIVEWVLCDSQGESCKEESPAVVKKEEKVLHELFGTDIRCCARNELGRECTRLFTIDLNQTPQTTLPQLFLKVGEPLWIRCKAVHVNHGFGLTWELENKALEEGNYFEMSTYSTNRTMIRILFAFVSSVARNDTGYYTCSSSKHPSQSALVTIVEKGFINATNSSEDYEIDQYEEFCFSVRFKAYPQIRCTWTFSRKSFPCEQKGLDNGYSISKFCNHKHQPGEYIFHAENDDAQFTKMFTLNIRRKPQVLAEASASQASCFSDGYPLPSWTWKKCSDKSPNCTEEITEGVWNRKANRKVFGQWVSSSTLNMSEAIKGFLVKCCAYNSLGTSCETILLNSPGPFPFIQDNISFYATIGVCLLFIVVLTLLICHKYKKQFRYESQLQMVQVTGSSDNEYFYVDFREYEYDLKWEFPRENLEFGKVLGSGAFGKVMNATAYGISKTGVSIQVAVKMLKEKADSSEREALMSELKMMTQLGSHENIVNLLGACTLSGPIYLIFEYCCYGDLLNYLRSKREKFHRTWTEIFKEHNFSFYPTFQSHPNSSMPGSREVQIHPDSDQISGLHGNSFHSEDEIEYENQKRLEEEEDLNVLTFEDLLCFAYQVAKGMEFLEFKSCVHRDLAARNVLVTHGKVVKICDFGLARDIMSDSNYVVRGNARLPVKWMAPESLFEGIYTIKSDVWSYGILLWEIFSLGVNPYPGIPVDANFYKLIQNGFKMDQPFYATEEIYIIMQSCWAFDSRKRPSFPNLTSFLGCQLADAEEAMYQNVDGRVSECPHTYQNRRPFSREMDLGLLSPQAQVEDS
Nature of the test: ADP Glo kinase assay, FLT3-ITD. It counts as biochemical. The settings on record: Km ATP 100 μM, read-out: Enzymatic inhibition, Ki, FLT3-ITD. On the procedure: as §1

Test [7] relates to MV-4-11. Nature of the test: Proliferation assay (resazurin, leukemia cell lines), MV-4-11. Format: cell-based. Conditions: Homo sapiens, MV4-11, read-out: 72 h Growth inhibition GI50, MV-4-11 cells. The source says:
The following compounds were used as comparators.
(The colour change of resazurin is a common sign of viable cells or microbes.)

Chain of CDK1/CyclinB (P06493 whole entry, species assumed): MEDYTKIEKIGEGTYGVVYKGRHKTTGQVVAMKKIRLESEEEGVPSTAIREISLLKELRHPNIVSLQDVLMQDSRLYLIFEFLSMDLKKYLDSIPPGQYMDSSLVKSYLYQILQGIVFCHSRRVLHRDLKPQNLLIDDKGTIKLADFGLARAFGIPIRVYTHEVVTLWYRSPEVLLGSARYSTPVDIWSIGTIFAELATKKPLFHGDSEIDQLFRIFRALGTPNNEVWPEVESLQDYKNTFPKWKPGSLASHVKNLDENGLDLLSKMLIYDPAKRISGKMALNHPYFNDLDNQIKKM
Chain of CDK1/CyclinB (P14635 whole entry partner, species assumed): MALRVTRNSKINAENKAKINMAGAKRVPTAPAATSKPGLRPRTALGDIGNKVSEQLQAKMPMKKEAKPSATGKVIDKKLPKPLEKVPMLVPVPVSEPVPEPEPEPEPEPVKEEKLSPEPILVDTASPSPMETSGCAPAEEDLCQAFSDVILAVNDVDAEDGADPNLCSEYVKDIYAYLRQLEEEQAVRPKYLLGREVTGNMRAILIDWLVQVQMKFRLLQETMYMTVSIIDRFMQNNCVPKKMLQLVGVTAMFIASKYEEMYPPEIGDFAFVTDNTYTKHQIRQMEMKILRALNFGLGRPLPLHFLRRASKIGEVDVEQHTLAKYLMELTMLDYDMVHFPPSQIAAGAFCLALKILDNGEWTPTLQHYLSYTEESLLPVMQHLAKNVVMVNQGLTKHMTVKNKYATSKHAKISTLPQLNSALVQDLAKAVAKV
Chain of CDK9/CyclinT1 (P50750 whole entry, species assumed): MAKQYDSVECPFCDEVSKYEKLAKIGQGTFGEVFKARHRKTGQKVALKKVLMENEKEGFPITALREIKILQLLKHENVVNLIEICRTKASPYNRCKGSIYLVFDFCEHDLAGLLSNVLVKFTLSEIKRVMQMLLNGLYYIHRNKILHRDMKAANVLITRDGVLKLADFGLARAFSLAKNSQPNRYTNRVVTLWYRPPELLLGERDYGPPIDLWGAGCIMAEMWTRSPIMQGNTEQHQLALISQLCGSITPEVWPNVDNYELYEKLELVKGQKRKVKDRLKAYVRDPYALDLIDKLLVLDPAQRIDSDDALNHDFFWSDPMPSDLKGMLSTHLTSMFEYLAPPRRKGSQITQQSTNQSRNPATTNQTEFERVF
Chain of CDK9/CyclinT1 (O60563 whole entry partner, species assumed): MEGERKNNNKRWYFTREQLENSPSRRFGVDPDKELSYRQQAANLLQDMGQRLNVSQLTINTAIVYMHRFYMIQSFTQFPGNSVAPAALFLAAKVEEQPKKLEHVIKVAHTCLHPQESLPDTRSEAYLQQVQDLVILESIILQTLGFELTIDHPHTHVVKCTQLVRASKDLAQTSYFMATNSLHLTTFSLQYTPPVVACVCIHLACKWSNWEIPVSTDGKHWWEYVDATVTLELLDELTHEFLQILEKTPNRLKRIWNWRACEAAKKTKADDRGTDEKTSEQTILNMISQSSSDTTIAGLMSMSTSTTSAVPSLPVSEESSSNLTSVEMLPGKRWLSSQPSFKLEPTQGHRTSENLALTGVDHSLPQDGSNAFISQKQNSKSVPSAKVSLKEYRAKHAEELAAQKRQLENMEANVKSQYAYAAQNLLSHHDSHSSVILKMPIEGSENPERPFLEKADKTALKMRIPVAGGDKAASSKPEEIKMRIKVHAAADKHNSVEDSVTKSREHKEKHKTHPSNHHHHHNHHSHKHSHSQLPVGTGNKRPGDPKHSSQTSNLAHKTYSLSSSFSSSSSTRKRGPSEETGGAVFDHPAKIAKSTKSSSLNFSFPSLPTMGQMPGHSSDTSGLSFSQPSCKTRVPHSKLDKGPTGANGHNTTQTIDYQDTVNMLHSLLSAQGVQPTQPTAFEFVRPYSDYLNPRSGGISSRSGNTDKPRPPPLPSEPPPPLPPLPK
Chain of CDK7/CyclinH/Mat1 (P50613 whole entry, species assumed): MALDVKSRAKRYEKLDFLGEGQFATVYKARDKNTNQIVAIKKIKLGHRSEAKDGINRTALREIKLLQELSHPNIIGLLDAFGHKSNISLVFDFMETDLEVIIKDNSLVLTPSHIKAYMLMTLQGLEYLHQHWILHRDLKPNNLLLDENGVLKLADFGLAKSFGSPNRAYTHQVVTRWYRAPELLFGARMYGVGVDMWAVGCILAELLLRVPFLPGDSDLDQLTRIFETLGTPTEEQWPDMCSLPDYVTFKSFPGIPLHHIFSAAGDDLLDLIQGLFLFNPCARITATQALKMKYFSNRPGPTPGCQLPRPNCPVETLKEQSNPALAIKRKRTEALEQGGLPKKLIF
Chain of CDK7/CyclinH/Mat1 (P51946 whole entry partner, species assumed): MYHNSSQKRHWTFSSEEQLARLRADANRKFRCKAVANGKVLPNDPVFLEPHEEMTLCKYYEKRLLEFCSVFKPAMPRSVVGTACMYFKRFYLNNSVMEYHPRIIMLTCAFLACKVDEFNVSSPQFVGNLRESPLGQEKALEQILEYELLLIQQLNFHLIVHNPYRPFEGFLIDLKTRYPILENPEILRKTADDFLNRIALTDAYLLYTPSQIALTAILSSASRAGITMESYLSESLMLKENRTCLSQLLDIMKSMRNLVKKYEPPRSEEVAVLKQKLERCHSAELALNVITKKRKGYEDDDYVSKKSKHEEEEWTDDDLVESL
Chain of CDK7/CyclinH/Mat1 (P51948 whole entry partner, species assumed): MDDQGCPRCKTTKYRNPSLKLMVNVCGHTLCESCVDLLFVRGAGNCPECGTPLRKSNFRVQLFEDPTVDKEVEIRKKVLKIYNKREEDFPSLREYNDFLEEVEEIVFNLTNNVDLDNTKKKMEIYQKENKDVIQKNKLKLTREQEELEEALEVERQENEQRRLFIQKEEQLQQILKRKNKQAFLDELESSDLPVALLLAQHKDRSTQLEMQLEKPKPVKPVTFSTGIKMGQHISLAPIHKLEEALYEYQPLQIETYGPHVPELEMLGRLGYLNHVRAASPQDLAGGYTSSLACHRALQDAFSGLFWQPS
Chain of CDK6/CyclinD3 (Q00534 whole entry, species assumed): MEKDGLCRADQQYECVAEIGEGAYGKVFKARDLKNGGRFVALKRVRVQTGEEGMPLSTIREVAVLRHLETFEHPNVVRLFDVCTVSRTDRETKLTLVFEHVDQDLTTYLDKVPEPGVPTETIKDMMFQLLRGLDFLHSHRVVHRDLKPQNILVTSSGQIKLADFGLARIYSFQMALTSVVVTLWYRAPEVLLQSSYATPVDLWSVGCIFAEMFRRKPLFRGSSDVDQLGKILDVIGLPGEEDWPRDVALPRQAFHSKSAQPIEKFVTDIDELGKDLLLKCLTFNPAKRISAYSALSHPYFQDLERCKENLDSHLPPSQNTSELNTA
Chain of CDK6/CyclinD3 (P30281 whole entry partner, species assumed): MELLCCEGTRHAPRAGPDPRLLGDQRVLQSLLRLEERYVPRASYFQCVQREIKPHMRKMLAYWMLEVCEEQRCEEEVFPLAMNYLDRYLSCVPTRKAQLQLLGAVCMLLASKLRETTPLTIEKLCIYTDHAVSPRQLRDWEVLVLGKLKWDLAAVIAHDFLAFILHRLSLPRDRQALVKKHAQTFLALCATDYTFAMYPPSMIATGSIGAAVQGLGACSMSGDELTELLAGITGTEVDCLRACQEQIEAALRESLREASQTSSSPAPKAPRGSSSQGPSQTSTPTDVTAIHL

Consider `CN1CCN(c2ccc(Nc3nccc(-c4cnc5ccc(-c6ccccc6)cn45)n3)nc2)CC1` [Comparator compound A, N-(5-(4-methylpiperazin-1-yl)pyridin-2-yl)-4-(6-phenylimidazo[1,2-a]pyridin-3-yl)pyrimidin-2-amine, reference compound], for which the remaining activity at 1 µM in test [1] was determined as 87%; in test [2], 86%; in test [3] it was 66%. Besides, the inhibition constant (Ki) in test [4] amounted to 83 nM.

On to `CS(=O)(=O)N1CCN(c2ccc(Nc3nccc(-c4cnc5ccc(-c6cc7ccccc7o6)cn45)n3)cn2)CC1` [Compound 52, 4-(6-(Benzofuran-2-yl)imidazo[1,2-a]pyridin-3-yl)-N-(6-(4-(methylsulfonyl)piperazin-1-yl)pyridin-3-yl)pyrimidin-2-amine], for which the remaining activity at 1 µM in test [1] turned out to be 62%; in test [2], 97%; in test [5], 100%; in test [3], 99%. The Ki in test [4] was > 500 nM; in test [6] it was 57 nM. Moreover, the concentration for 50% growth inhibition (GI50) in test [7] came to 23 nM.

For the compound `CC(C)N1CCN(c2ccc(Nc3nccc(-c4cnc5ccc(-c6cncnc6)cn45)n3)cn2)CC1` [Compound 53, N-(6-(4-Isopropylpiperazin-1-yl)pyridin-3-yl)-4-(6-(pyrimidin-5-yl)imidazo[1,2-a]pyridin-3-yl)pyrimidin-2-amine], the remaining activity at 1 µM in test [1] came out at 71%; in test [2], 75%; in test [5] it was 66%; in test [3] it was 56%. In addition, the Ki in test [4] came to 92 nM; in test [6], 71 nM. In addition, the GI50 in test [7] was 46 nM.

On to `CC(C)N1CCN(c2ccc(Nc3nccc(-c4cnc5ccc(-c6ccc(F)nc6)cn45)n3)cn2)CC1` [Compound 55, 4-(6-(6-Fluoropyridin-3-yl)imidazo[1,2-a]pyridin-3-yl)-N-(6-(4-isopropylpiperazin-1-yl)-pyridin-3-yl)pyrimidin-2-amine], for which the remaining activity at 1 µM in test [1] was determined as 50%; in test [2], 62%; in test [5] it was 55%; in test [3] it was 38%. Further, the inhibition constant Ki in test [4] is 36 nM; in test [6] it was 28 nM. Further, the GI50 in test [7] was 116 nM.

For the compound `CS(=O)(=O)N1CCN(c2ccc(Nc3nccc(-c4cnc5ccc(-c6ccc(F)nc6)cn45)n3)cn2)CC1` [Compound 56, 4-(6-(6-Fluoropyridin-3-yl)imidazo[1,2-a]pyridin-3-yl)-N-(6-(4-(methylsulfonyl)piperazin-1-yl)pyridin-3-yl)pyrimidin-2-amine], the remaining activity at 1 µM in test [1] turned out to be 78%; in test [2] it was 36%; in test [5] it was 96%; in test [3], 94%. The Ki in test [4] was 380 nM; in test [6], 84 nM. The concentration for 50% growth inhibition (GI50) in test [7] was 23 nM.

`Brc1ccc2ncc(-c3ccnc(Nc4ccc(NC5CCOCC5)nc4)n3)n2c1` [Compound 57, N^5-(4-(6-Bromoimidazo[1,2-a]pyridin-3-yl)pyrimidin-2-yl)-N^2-(tetrahydro-2H-pyran-4-yl)pyridine-2,5-diamine]: the remaining activity at 1 µM stood at 57% in test [1], 93% in test [5] and 88% in test [3]. In addition, the Ki in test [2] (Km ATP, read-out: Enzymatic inhibition, Ki, CDK2 A) was 56 nM; in test [4] it was 103 nM; in test [6], 40 nM. The GI50 in test [7] came to 30 nM.

For the compound `CCS(=O)(=O)N1CCN(c2ccc(Nc3nccc(-c4cnc5ccc(-c6ccccc6)cn45)n3)cn2)CC1` [Compound 60, N-(6-(4-(Ethylsulfonyl)piperazin-1-yl)pyridin-3-yl)-4-(6-phenylimidazo[1,2-a]pyridin-3-yl)pyrimidin-2-amine], the remaining activity at 1 µM in test [1] was 61%; in test [2], 91%; in test [5], 100%; in test [3], 100%. The inhibitory constant (Ki) in test [4] came out at 509 nM; in test [6], 142 nM. The 50% growth inhibitory concentration (GI50) in test [7] came to 20 nM.

`CCS(=O)(=O)N1CCN(c2ccc(Nc3nccc(-c4cnc5ccc(-c6ccc(F)nc6)cn45)n3)cn2)CC1` [Compound 61, N-(6-(4-(Ethylsulfonyl)piperazin-1-yl)pyridin-3-yl)-4-(6-(6-fluoropyridin-3-yl)imidazo[1,2-a]pyridin-3-yl)pyrimidin-2-amine]: the remaining activity at 1 µM in test [1] stood at 38%; in test [2], 71%; in test [5], 72%; in test [3] it was 57%. Moreover, the Ki is 428 nM in test [4] and 149 nM in test [6]. Further, the GI50 in test [7] was 20 nM.

Take `O=C(c1ccco1)N1CCN(c2ccc(Nc3nccc(-c4cnc5ccc(Br)cn45)n3)cn2)CC1` [Compound 62, (4-(5-((4-(6-Bromoimidazo[1,2-a]pyridin-3-yl)pyrimidin-2-yl)amino)pyridin-2-yl)piperazin-1-yl)(furan-2-yl)methanone]: the remaining activity at 1 µM was 39% in test [1], 57% in test [2], 76% in test [5] and 60% in test [3]. Besides, the inhibition constant (Ki) in test [4] is 541 nM; in test [6], 188 nM. Further, the GI50 in test [7] is 52 nM.

Consider `O=C(c1ccco1)N1CCN(c2ccc(Nc3nccc(-c4cnc5ccc(-c6ccccc6)cn45)n3)cn2)CC1` [Compound 63, Furan-2-yl(4-(5-((4-(6-phenylimidazo[1,2-a]pyridin-3-yl)pyrimidin-2-yl)amino)pyridin-2-yl)piperazin-1-yl)methanone], for which the remaining activity at 1 µM amounted to 26% in test [1], 49% in test [2], 100% in test [5] and 93% in test [3]. Besides, the inhibitory constant (Ki) came out at 242 nM in test [4] and 82 nM in test [6]. Besides, the concentration for 50% growth inhibition (GI50) in test [7] was 25 nM.

Consider `COc1cc(F)cc(-c2ccc3ncc(-c4ccnc(Nc5ccc(N6CCN(C)CC6)nc5)n4)n3c2)c1` [Compound 64, 4-(6-(3-Fluoro-5-methoxyphenyl)imidazo[1,2-a]pyridin-3-yl)-N-(6-(4-methylpiperazin-1-yl)pyridin-3-yl)pyrimidin-2-amine], for which the remaining activity at 1 µM in test [1] came out at 57%; in test [2] it was 90%; in test [5], 66%; in test [3] it was 38%. Further, the Ki in test [4] came out at 26 nM; in test [6], 6 nM. The GI50 in test [7] is 2 nM.

For the compound `CN(C)c1ccc(Nc2nccc(-c3cnc4ccc(-c5ccccc5)cn34)n2)cn1` [Compound 66, N^2,N^2-Dimethyl-N^5-(4-(6-phenylimidazo[1,2-a]pyridin-3-yl)pyrimidin-2-yl)pyridine-2,5-diamine], the remaining activity at 1 µM in test [1] was determined as 76%; in test [2], 73%; in test [5], 79%; in test [3] it was 64%. The Ki in test [4] amounted to 468 nM; in test [6], 220 nM. Also, the GI50 in test [7] was 17 nM.

In general, Ki refers to a dissociation constant, usually derived from enzyme kinetics or from competition with a known ligand. What is called GI50 is the concentration that inhibits growth by half.

The record behind these values is patent publication US20240158391A1, “DERIVATIVES OF 4-(IMIDAZO[1,2-A]PYRIDIN-3-YL)-N-(PYRIDIN-3-YL) PYRIMIDIN-2- AMINE FOR TREATING PROLIFERATIVE DISEASES AND CONDITIONS” (AUCENTRA THERAPEUTICS PTY LTD, priority 2019, published 2024).
